Reference: patent US8426433B2, priority 2007, dated 2013)
Read-outs that look alike come from different tables or passages of the source.

Tests used:
[1] = system: endogenous thrombin potential in normal donor plasma (PPP); experiment: Thrombin generation test (endogenous thrombin potential) in normal donor plasma; assay type: biochemical; conditions: read-out: IC50 (50% reduction in endogenous thrombin potential)
Source text: This method was described in detail in many papers (Hemker H C, Giesen P L, Ramjee M, Wagenvoord R, Beguin S. The thrombogram: monitoring thrombin generation in platelet-rich plasma. Thromb. Haemost., 2000; 83(4): 589-591; Hemker H C, AlDieri R, Beguin S. Thrombin generation assays: accruing clinical relevance. Curr. Opin. Hematol., 2004, 11(3):170-175; Hemker H C, Giesen P, AlDieri R, Regnault V, de Smed E, Wagenvoord R, Lecompte T, Beguin S. The calibrated automated thrombogram (CAT): a universal routine test for hyper- and hypocoagulability. Pathophysiol. Haemost. Thromb., 2002, 32(5-6):249-253). The test is used to measure the kinetics and total quantity of active thrombin generated in a plasma sample over a specified time at a standard clotting activation level in the sample. These applicants' method is suitable for measuring thrombin concentration using a slow-action fluorogenic substrate (BOC-Ile-Gly-Arg-AMC), which gives a highly fluorescent product, 7-amino-4-methylcoumarin (AMC), when broken d own by thrombin. The use of a fluorogenic, rather than chromogenic, substrate is dictated by the fact that the fluorescence level in the sample is virtually unaffected by the solid fibrin clot formed in the metering cell, but this is a qualification that restricts the application of a chromogenic substrate (Hemker H C, Giesen P, AlDieri R, Regnault V, de Smed E, Wagenvoord R, Lecompte T, Beguin S. The calibrated automated thrombogram (CAT): a universal routine test for hyper- and hypocoagulability. Pathophysiol. Haemost. Thromb., 2002, 32(5-6):249-253). On the other hand, it is common knowledge that the bulk of thrombin (about 95%) in the sample is generated after the first clot has already formed (Hemker H C, AlDieri R, Beguin S. Thrombin generation assays: accruing clinical relevance. Curr. Opin. Hematol., 2004, 11(3):170-175).
The kinetics of thrombin generation and ultimately loss in plasma after clotting activation is shown in FIG. 1, which illustrates the relationship between concentration of active thrombin in a plasma sample and time. The area under the thrombin generation time curve (in this invention, from 0 to 50 minutes of incubation) is called endogenous thrombin potential (ETP). The curve is further characterized by tmax, the time when thrombin in the sample reaches maximum concentration, Amax, the maximum thrombin concentration in the system, and tlag, the time before clotting commencement, which is conventionally the time when thrombin reaches a concentration of 5 nM.
Obviously, important clotting information is contained in the shape of thrombin concentration to time curves, as well as the integral ETP level. In particular, against the background of low factor and clotting inhibitor concentration, thrombin concentration maximums can be lower and also broader, although the total ETP might not change at all. The presence of additional thrombin inhibitors in plasma must reduce ETP and maximum attainable thrombin concentration, and increase the clotting lag and the time required for thrombin to achieve maximum concentration.
Measurements were taken as follows: 90 microliters of normal donor plasma (PPP), 0 to 20 microliters of the test substance solution, and 20 to 0 microliters of buffering solution (20 mM of HEPES, 140 mM of NaCal, pH 7.5) were deposited in the holes of a 96 hole board so that the total volume of added substance and buffer is always 20 microliters. Whereupon 20 microliters of a fluorogenic substrate solution (at 5 mM initial concentration) was added to each of the board holes, and plasma was heated for 3 to 5 minutes at 37° C. Next, 25 microliters of a clotting activator solution was added simultaneously (using a multichannel pipette) to all the holes. A thromboplastin solution prepared from a standard thromboplastin reagent diluted to 1/250th of its original concentration by the same buffer further containing 80 mM of CaCl2 to measure the prothrombin time (PT) (RENAM, Russia) was used as activator. […]

Acute toxicity, LD50 = conditions: mouse, in vivo, mice
[2] = Argatroban after clinical testing; cited from earlier work
[3] = system: clot growth in platelet-free plasma; experiment: Clot growth rate in space (light scattering) in platelet-free plasma; assay type: biochemical; conditions: 1 mcM of the compound in normal plasma versus plasma control, FIG. 9-11
Source text: The clot growth rate in space describes the dynamics of clotting, which is a process that develops over time and across space. This method measures light scattering to determine the size of the clot at different periods of time once clotting has begun. Clotting is activated in the system by an activator precisely localized in space without stirring. The activator was alternatively either a simple glass plate having a ground edge to cause contact activation on the internal path or fibroblast-coated polyethylene terephthalate films provided on the surface with a tissue factor to activate clotting on the external path. […]
Light scattering profiles corresponding to different time moments from the start of the experiment were obtained by processing the series of recorded images. […] The clot size in each frame was determined as the distance from the activator to the clot edge assumed to be the point where light scattering was half the maximum value. […]
The last output processing stage was calculating the clot growth rate on the basis of the light scattering profiles obtained. The clot size was assessed at each point of time as the distance of a respective light scattering profile from the activator (at half-point of the maximum profile height). […] The quasi-stationary growth rate of the clot was calculated from the inclination angle of the linear portion of the curve.

[4] = system: endogenous thrombin potential in diluted donor platelet-free plasma; experiment: ETP in plasma diluted with NaCl 0.9% plasma-substituting solution containing inhibitor; assay type: biochemical; conditions: 0.25-0.5 mcM in NaCl 0.9% solution; plasma diluted at a ratio of 1.5 to 4, FIG. 12
Experimental: Donor blood prepared on a 3.8% sodium citrate at a 9:1 ratio of blood to citrate (20 ml) was centrifuged for 15 minutes at 1,300 g. Some of the platelet-poor plasma (PPP) was centrifuged for another 10 minutes at 10,000 g to obtain a platelet-free plasma (PFP). The PFP thus produced was then used for measuring the endogenous thrombin potential.
PFP was diluted at a ratio of 1.5, 2, 3 and 4 with either transfusion-grade physiological saline (NaCl 0.9%) or with the same solution containing additionally a thrombin inhibitor HC-025s-IOC (at concentrations of 0.25, 0.5 or 1 mcM). For constant concentration of Ca^+2 to be maintained through the tests after recalcification, sodium citrate concentration was maintained constant in all plasma dilutions to be identical to the concentration in initial undiluted plasma, for which purpose the initial plasma-substituting solutions used to dilute the plasma were first mixed with 3.8% sodium citrate similarly with initial blood at a 9:1 solution to citrate ratio.
The plasma sample used in the above-described ETP measurement method was always diluted at a 1.5 ratio throughout. An opportunity must be provided to measure ETP in undiluted plasma in experiments to dilute plasmas with PSS. […] Endogenous thrombin potential was measured for each of the diluted plasmas in the presence of different concentrations of HC-025s-IOC.

Compound | IC50 [1] | also measured
Cc1cc(OCCCn2ccsc2=N)cc(OS(=O)(=O)c2ccccc2)c1 | 24800 nM | LD50 (Acute toxicity, LD50; 0.9% NaCl): > 199 mg/kg
CC1CNc2c(cccc2S(=O)(=O)N[C@@H](CCCNC(=N)N)C(=O)N2CC[C@@H](C)C[C@@H]2C(=O)O)C1 (stereo partly drawn) [Argatroban] | – | LD50 [2]: 475 mg/kg
Cc1cc(OCCC[n+]2ccc(N)cc2)cc(OS(=O)(=O)c2ccccc2)c1 [HC-016s-IOC, 4-amino-1-(3-(3-methyl-5-(benzenesulfonyloxy)phenoxy)propyl)-pyridinium iodide] | ~240000 nM | –
Cc1cc(OCCCSC(=N)N)cc(OS(=O)(=O)c2ccccc2)c1.I [HC-018s-IOC, 3-(3-methyl-5-(benzenesulfonyloxy)phenoxy)propyl-isothiouronium iodide] | – | LD50 (Acute toxicity, LD50; 0.9% NaCl + cremophor 20%): < 441 mg/kg
Cc1cc(OCC[n+]2ccc(N)cc2)cc(OS(=O)(=O)c2ccccc2)c1 [HC-019s-IOC, 4-amino-1-(2-(3-methyl-5-(benzenesulfonyloxy)phenoxy)ethyl)-pyridinium iodide] | 250 nM | LD50 (Acute toxicity, LD50; 0.9% NaCl + cremophor 20%): > 278 mg/kg
Cc1cc(OCCSC(=N)N)cc(OS(=O)(=O)c2ccccc2)c1 [HC-020s-IOC, 2-(3-methyl-5-(benzenesulfonyloxy)phenoxy)ethyl-isothiouronium iodide] | – | LD50 (Acute toxicity, LD50; 0.9% NaCl + cremophor 20%): > 1110 mg/kg
Cc1cc(OCCC[n+]2ccc(N)cc2)cc(OS(=O)(=O)c2ccccc2Cl)c1 [HC-023s-IOC] | 40000 nM | –
Cc1cc(OCC[n+]2ccc(N)cc2)cc(OS(=O)(=O)c2ccccc2Cl)c1.[I-] [HC-025s-IOC, 4-amino-1-(2-(3-methyl-5-(2-chlorobenzenesulfonyloxy)phenoxy)ethyl)-pyridinium iodide] | 260 nM | Spatial clot growth dynamics (clot size versus time) [3]: inhibits clotting; ETP readings for different plasma dilutions [4]: closest thing to normal
CNc1ccc(S(=O)(=O)N(C)c2ccccc2)cc1NC(=O)CC[n+]1ccc(N)cc1.[Cl-] [HC_028s_IOC] | ~9000 nM | LD50 (Acute toxicity, LD50; 0.9% NaCl + cremophor 20%): 257 ± 31 mg/kg
Cc1cc(OCCC[n+]2ccc(N)cc2)cc(OS(=O)(=O)c2ccccc2F)c1 [HC_029s_IOC, 4-amino-1-(3-(3-methyl-5-(2-fluorobenzenesulfonyloxy)phenoxy)propyl)-pyridinium iodide] | 27000 nM | –
Cc1cc(OCCC[n+]2ccsc2N)cc(OS(=O)(=O)c2ccccc2F)c1 [HC_030s_IOC] | ~8600 nM | –
Cc1cc(OCCCSC(=N)N)cc(OS(=O)(=O)c2ccccc2F)c1 [HC_031s_IOC] | 1240 nM | –
C/N=C(/N)SCCCOc1cc(C)cc(OS(=O)(=O)c2ccccc2Cl)c1 [HC_032s_IOC] | 25200 nM | –
C/N=C(/N)CSCCCOc1cc(C)cc(OS(=O)(=O)c2ccccc2Cl)c1 [HC_033s_IOC] | 527 nM | –
Cc1cc(OCC[n+]2ccc(N)cc2)cc(OS(=O)(=O)c2ccccc2S(C)(=O)=O)c1 [HC_036s_IOC] | 158 nM | –
Cc1cc(OCC[n+]2ccc(N)cc2)cc(OS(=O)(=O)c2ccccc2F)c1 [HC_037s_IOC] | ~100 nM | –
Cc1ccc(S(=O)(=O)Oc2cc(C)cc(OCC[n+]3ccc(N)cc3)c2)cc1 [HC_038s_IOC] | ~4000 nM | –
Cc1cc(OCC[n+]2ccc(N)cc2)cc(OS(=O)(=O)c2ccc(Cl)cc2)c1 [HC_039s_IOC] | 150 nM | –
Cc1cc(OCCSC(=N)N)cc(OS(=O)(=O)c2ccccc2S(C)(=O)=O)c1 [HC_040s_IOC] | 800 nM | –
Nc1cc[n+](CCOc2cccc(NS(=O)(=O)c3ccccc3)c2)cc1 [HC_041s_IOC] | 1600 nM | –
Cc1cc(OCC[n+]2ccsc2N)cc(OS(=O)(=O)c2ccccc2Cl)c1 [HC_045s_IOC] | 16000 nM | –
Cc1cc(OCC[n+]2ccc(N)nc2)cc(OS(=O)(=O)c2ccccc2)c1 [HC_047s_IOC] | 2500 nM | –
